Measured values taken from ChEMBL document CHEMBL2177037, “10'-Fluorovinblastine and 10'-Fluorovincristine: Synthesis of a Key Series of Modified Vinca Alkaloids” (ACS Med Chem Lett, 2011).
Active and inactive are the calls of the source. The rule behind the calls is not given here.

What was measured:
HCT-116 [1] = assay: Cytotoxicity against human HCT116 cells; format: functional, cell-based
HCT-116/VM46 [2] = assay: Cytotoxicity against human vinblastin-resistant HCT116/VM46 cells; format: functional, cell-based
L1210 [3] = assay: Cytotoxicity against mouse L1210 cells; format: functional, cell-based
HCT-116 [4] = assay: Antitumor activity against human HCT116 cells xenografted in mouse assessed as mouse survival at 0.5 mg/kg; format: functional, organism-based; set-up: dose 0.5 mg/kg
HCT-116/VM46 [5] = assay: Ratio of vincristine IC50 to compound IC50 for human vincristine-resistant HCT116/VM46 cells; format: functional
L1210 [6] = assay: Ratio of vincristine IC50 to compound IC50 for mouse L1210 cells; format: functional
HCT-116 [7] = assay: Ratio of vincristine IC50 to compound IC50 for human HCT116 cells; format: functional
HCT-116 [8] = assay: Ratio of vinblastin IC50 to compound IC50 for human HCT116 cells; format: functional
L1210 [9] = assay: Ratio of vinblastin IC50 to compound IC50 for mouse L1210 cells; format: functional
HCT-116/VM46 [10] = assay: Ratio of vinblastin IC50 to compound IC50 for human vinblastin-resistant HCT116/VM46 cells; format: functional
HCT-116/VM46 [11] = assay: Antitumor activity against human HCT116/VM46 cells xenografted in mouse assessed as mouse survival at 0.01 to 0.5 mg/kg, ip after 110 days; format: functional, organism-based

| SMILES | IC50 (HCT-116 [1]) | IC50 (HCT-116/VM46 [2]) | IC50 (L1210 [3]) | further results |
| --- | --- | --- | --- | --- |
| CCC1=C[C@H]2CN(CCc3c([nH]c4ccc(C#N)cc34)[C@@](C(=O)OC)(c3cc4c(cc3OC)N(C)[C@H]3[C@@](O)(C(=O)OC)[C@H](OC(C)=O)[C@]5(CC)C=CCN6CC[C@]43[C@@H]65)C2)C1 | 70 nM | 920 nM | 65 nM | – |
| CCC1=C[C@H]2CN(CCc3c([nH]c4ccccc34)[C@@](C(=O)OC)(c3cc4c(cc3OC)N(C)[C@H]3[C@@](O)(C(=O)OC)[C@H](OC(C)=O)[C@]5(CC)C=CCN6CC[C@]43[C@@H]65)C2)C1 | 75 nM | 600 nM | 65 nM | – |
| CCC1=C[C@H]2CN(CCc3c([nH]c4c(Cl)cccc34)[C@@](C(=O)OC)(c3cc4c(cc3OC)N(C)[C@H]3[C@@](O)(C(=O)OC)[C@H](OC(C)=O)[C@]5(CC)C=CCN6CC[C@]43[C@@H]65)C2)C1 | 880 nM | 7300 nM | 640 nM | – |
| CC[C@]1(O)C[C@H]2CN(CCc3c([nH]c4ccc(C#N)cc34)[C@@](C(=O)OC)(c3cc4c(cc3OC)N(C)[C@H]3[C@@](O)(C(=O)OC)[C@H](OC(C)=O)[C@]5(CC)C=CCN6CC[C@]43[C@@H]65)C2)C1 | 620 nM | > 10000 nM | 630 nM | – |
| CCC1=C[C@H]2CN(CCc3c([nH]c4ccc(Cl)cc34)[C@@](C(=O)OC)(c3cc4c(cc3OC)N(C)[C@H]3[C@@](O)(C(=O)OC)[C@H](OC(C)=O)[C@]5(CC)C=CCN6CC[C@]43[C@@H]65)C2)C1 | 70 nM | 800 nM | 60 nM | – |
| CCC1=C[C@H]2CN(CCc3c([nH]c4ccc(F)cc34)[C@@](C(=O)OC)(c3cc4c(cc3OC)N(C)[C@H]3[C@@](O)(C(=O)OC)[C@H](OC(C)=O)[C@]5(CC)C=CCN6CC[C@]43[C@@H]65)C2)C1 | 50 nM | 290 nM | 30 nM | – |
| CCC1=C[C@H]2CN(CCc3c([nH]c4ccc(O)cc34)[C@@](C(=O)OC)(c3cc4c(cc3OC)N(C)[C@H]3[C@@](O)(C(=O)OC)[C@H](OC(C)=O)[C@]5(CC)C=CCN6CC[C@]43[C@@H]65)C2)C1 | 500 nM | 7200 nM | 590 nM | – |
| CC[C@]1(O)C[C@@H]2CN(CCc3c([nH]c4ccccc34)[C@@](C(=O)OC)(c3cc4c(cc3OC)N(C)[C@H]3[C@@](O)(C(=O)OC)[C@H](OC(C)=O)[C@]5(CC)C=CCN6CC[C@]43[C@@H]65)C2)C1 [VINBLASTINE] | – | 600 nM | – | Activity (HCT-116 [4]): Active |
| CC[C@]1(O)C[C@H]2CN(CCc3c([nH]c4c(Cl)cccc34)[C@@](C(=O)OC)(c3cc4c(cc3OC)N(C)[C@H]3[C@@](O)(C(=O)OC)[C@H](OC(C)=O)[C@]5(CC)C=CCN6CC[C@]43[C@@H]65)C2)C1 | 220 nM | 5000 nM | 330 nM | – |
| CC[C@]1(O)C[C@H]2CN(CCc3c([nH]c4ccc(Cl)cc34)[C@@](C(=O)OC)(c3cc4c(cc3OC)N(C)[C@H]3[C@@](O)(C(=O)OC)[C@H](OC(C)=O)[C@]5(CC)C=CCN6CC[C@]43[C@@H]65)C2)C1 | 7.6 nM | 720 nM | 6.2 nM | – |
| CCC1=C[C@H]2CN(CCc3c([nH]c4c(Br)cccc34)[C@@](C(=O)OC)(c3cc4c(cc3OC)N(C)[C@H]3[C@@](O)(C(=O)OC)[C@H](OC(C)=O)[C@]5(CC)C=CCN6CC[C@]43[C@@H]65)C2)C1 | 740 nM | 3900 nM | 600 nM | – |
| CC[C@]1(O)C[C@H]2CN(CCc3c([nH]c4ccc(C)cc34)[C@@](C(=O)OC)(c3cc4c(cc3OC)N(C)[C@H]3[C@@](O)(C(=O)OC)[C@H](OC(C)=O)[C@]5(CC)C=CCN6CC[C@]43[C@@H]65)C2)C1 | 7.8 nM | 600 nM | 7.8 nM | – |
| CC[C@]1(O)C[C@H]2CN(CCc3c([nH]c4ccc(Br)cc34)[C@@](C(=O)OC)(c3cc4c(cc3OC)N(C)[C@H]3[C@@](O)(C(=O)OC)[C@H](OC(C)=O)[C@]5(CC)C=CCN6CC[C@]43[C@@H]65)C2)C1 | 8.6 nM | 270 nM | 8 nM | – |
| CC[C@]1(O)C[C@H]2CN(CCc3c([nH]c4ccc(I)cc34)[C@@](C(=O)OC)(c3cc4c(cc3OC)N(C)[C@H]3[C@@](O)(C(=O)OC)[C@H](OC(C)=O)[C@]5(CC)C=CCN6CC[C@]43[C@@H]65)C2)C1 | 60 nM | 840 nM | 55 nM | – |
| CC[C@]1(O)C[C@H]2CN(CCc3c([nH]c4c(I)cccc34)[C@@](C(=O)OC)(c3cc4c(cc3OC)N(C)[C@H]3[C@@](O)(C(=O)OC)[C@H](OC(C)=O)[C@]5(CC)C=CCN6CC[C@]43[C@@H]65)C2)C1 | 80 nM | 910 nM | 55 nM | – |
| CCC1=C[C@H]2CN(CCc3c([nH]c4ccc(I)cc34)[C@@](C(=O)OC)(c3cc4c(cc3OC)N(C)[C@H]3[C@@](O)(C(=O)OC)[C@H](OC(C)=O)[C@]5(CC)C=CCN6CC[C@]43[C@@H]65)C2)C1 | 600 nM | 1800 nM | 620 nM | – |
| CCC1=C[C@H]2CN(CCc3c([nH]c4ccc(Br)cc34)[C@@](C(=O)OC)(c3cc4c(cc3OC)N(C)[C@H]3[C@@](O)(C(=O)OC)[C@H](OC(C)=O)[C@]5(CC)C=CCN6CC[C@]43[C@@H]65)C2)C1 | 70 nM | 860 nM | 65 nM | – |
| CC[C@]1(O)C[C@H]2CN(CCc3c([nH]c4ccc(F)cc34)[C@@](C(=O)OC)(c3cc4c(cc3OC)N(C=O)[C@H]3[C@@](O)(C(=O)OC)[C@H](OC(C)=O)[C@]5(CC)C=CCN6CC[C@]43[C@@H]65)C2)C1 | 1.5 nM | – | 0.8 nM | Ratio IC50 (HCT-116/VM46 [5]): 5; Ratio IC50 (L1210 [6]): 5; Ratio IC50 (HCT-116 [7]): 5 |
| CCC1=C[C@H]2CN(CCc3c([nH]c4c(I)cccc34)[C@@](C(=O)OC)(c3cc4c(cc3OC)N(C)[C@H]3[C@@](O)(C(=O)OC)[C@H](OC(C)=O)[C@]5(CC)C=CCN6CC[C@]43[C@@H]65)C2)C1 | 870 nM | 6200 nM | 690 nM | – |
| CCC1=C[C@H]2CN(CCc3c([nH]c4ccc(SC)cc34)[C@@](C(=O)OC)(c3cc4c(cc3OC)N(C)[C@H]3[C@@](O)(C(=O)OC)[C@H](OC(C)=O)[C@]5(CC)C=CCN6CC[C@]43[C@@H]65)C2)C1 | 85 nM | 770 nM | 60 nM | – |
| CC[C@]1(O)C[C@H]2CN(CCc3c([nH]c4c(Br)cccc34)[C@@](C(=O)OC)(c3cc4c(cc3OC)N(C)[C@H]3[C@@](O)(C(=O)OC)[C@H](OC(C)=O)[C@]5(CC)C=CCN6CC[C@]43[C@@H]65)C2)C1 | 80 nM | 910 nM | 50 nM | – |
| CC[C@]1(O)C[C@H]2CN(CCc3c([nH]c4ccc(OC)cc34)[C@@](C(=O)OC)(c3cc4c(cc3OC)N(C)[C@H]3[C@@](O)(C(=O)OC)[C@H](OC(C)=O)[C@]5(CC)C=CCN6CC[C@]43[C@@H]65)C2)C1 | 720 nM | > 10000 nM | 670 nM | – |
| CCC1=C[C@H]2CN(CCc3c([nH]c4ccc(C)cc34)[C@@](C(=O)OC)(c3cc4c(cc3OC)N(C)[C@H]3[C@@](O)(C(=O)OC)[C@H](OC(C)=O)[C@]5(CC)C=CCN6CC[C@]43[C@@H]65)C2)C1 | 65 nM | 640 nM | 65 nM | – |
| CC[C@]1(O)C[C@H]2CN(CCc3c([nH]c4ccccc34)[C@@](C(=O)OC)(c3cc4c(cc3OC)N(C=O)[C@H]3[C@@](O)(C(=O)OC)[C@H](OC(C)=O)[C@]5(CC)C=CCN6CC[C@]43[C@@H]65)C2)C1 [VINCRISTINE] | 7 nM | – | 6 nM | – |
| CCC1=C[C@H]2CN(CCc3c([nH]c4ccc(OC)cc34)[C@@](C(=O)OC)(c3cc4c(cc3OC)N(C)[C@H]3[C@@](O)(C(=O)OC)[C@H](OC(C)=O)[C@]5(CC)C=CCN6CC[C@]43[C@@H]65)C2)C1 | 640 nM | 5500 nM | 550 nM | – |
| CC[C@]1(O)C[C@H]2CN(CCc3c([nH]c4ccc(SC)cc34)[C@@](C(=O)OC)(c3cc4c(cc3OC)N(C)[C@H]3[C@@](O)(C(=O)OC)[C@H](OC(C)=O)[C@]5(CC)C=CCN6CC[C@]43[C@@H]65)C2)C1 | 50 nM | 780 nM | 50 nM | – |
| CCC1=C[C@H]2CN(CCc3c([nH]c4c(F)cccc34)[C@@](C(=O)OC)(c3cc4c(cc3OC)N(C)[C@H]3[C@@](O)(C(=O)OC)[C@H](OC(C)=O)[C@]5(CC)C=CCN6CC[C@]43[C@@H]65)C2)C1 | 790 nM | 6700 nM | 650 nM | – |
| CC[C@]1(O)C[C@H]2CN(CCc3c([nH]c4ccc(F)cc34)[C@@](C(=O)OC)(c3cc4c(cc3OC)N(C)[C@H]3[C@@](O)(C(=O)OC)[C@H](OC(C)=O)[C@]5(CC)C=CCN6CC[C@]43[C@@H]65)C2)C1 | 0.8 nM | 80 nM | 0.7 nM | Ratio IC50 (HCT-116 [8]): 8; Ratio IC50 (L1210 [9]): 8; Ratio IC50 (HCT-116/VM46 [10]): 8; Activity (HCT-116/VM46 [11]): Active |
| CC[C@]1(O)C[C@H]2CN(CCc3c([nH]c4c(F)cccc34)[C@@](C(=O)OC)(c3cc4c(cc3OC)N(C)[C@H]3[C@@](O)(C(=O)OC)[C@H](OC(C)=O)[C@]5(CC)C=CCN6CC[C@]43[C@@H]65)C2)C1 | 65 nM | 730 nM | 50 nM | – |
